The subject of test [1] is U937 cells. The test is described as follows: Flow cytometry, Siglec-Fc pre-complexed with Strep-Tactin, streptavidin or anti-human IgG1. Format: cell-based. Particulars: for Binding: Suppl Fig 4b. Here is the method: (§1) Strep-Tactin-AF647 (0.55 μg/mL, 0.57 pmol), streptavidin (Biolegend), or anti-human igG1 (Biolegend) was added to Siglec supernatant (50 μL) or purified Siglec and allowed to sit at 4 °C for 15 min. After, the pre-complexed solution was added to cells in a 96-well U-bottom plate for 30 min at 4 °C. After, 200 μL of flow buffer (HBSS, 0.1% BSA, 5 mM EDTA) was added and the plate was spun down at 300 rcf for 5 min. The cells were resuspended in 200 μL of flow buffer and processed through the flow cytometer.
(§2) Flow cytometry was performed on a BD LSRFortessa™ X-20 cell analyzer using BD FACSDiva Software Version 8.0.1 and data was processed using FlowJo LLC. Version 9.9.6 and Graphpad Prism 8. The live, single cell populations were gated out with two gates to obtain the median fluorescence intensity (MFI), which indicates binding of the Siglec-Fc-secondary complex to the cell surface. Control cells that were incubated with Strep-Tactin-AF647 (0.55 μg/mL, 0.57 pmol) was used to determine the baseline fluorescence. Number of cells (# cells) plotted indicates percentage of max (% max).

Test [2] deals with A549 cells. The test is described as follows: Flow cytometry, pre-complexed Siglec-Fc binding. Format: cell-based. Particulars: Strep-Tactin-AF647, replicates. Here is the method: as §1, §2
Test [3] deals with HEK293T cells. Nature of the test: Flow cytometry, pre-complexed Siglec-Fc binding. Format: cell-based. Here is the method:
as §1, §2

The subject of test [4] is HuH7 cells. The test is described as follows: Flow cytometry, pre-complexed Siglec-Fc binding. Format: cell-based. As to conditions: Strep-Tactin-AF647, replicates. Here is the method:
as §1, §2

Test [5] has as its system Jurkat cells. The test is described as follows: Flow cytometry, pre-complexed Siglec-Fc binding. Format: cell-based. Particulars: Strep-Tactin-AF647, replicates. Here is the method: as §1, §2
The subject of test [6] is K562 cells. Nature of the test: Flow cytometry, pre-complexed Siglec-Fc binding. As to conditions: Strep-Tactin-AF647, replicates. Format: cell-based. Here is the method:
as §1, §2

Test [7] concerns BT549. The test is described as follows: Flow cytometry, pre-complexed Siglec-Fc binding to breast cancer cell line. Format: cell-based. Particulars: Strep-Tactin-AF647, replicates. Here is the method:
as §1, §2

For test [8], the system named is HS578T. The test is described as above. Format: cell-based. Particulars: Strep-Tactin-AF647, replicates. Here is the method:
as §1, §2

Test [9] deals with MCF7. Described as above. Format: cell-based. Particulars: Strep-Tactin-AF647, replicates. Here is the method: as §1, §2
Test [10] deals with MDA-MB-231. The test is described as above. Format: cell-based. As to conditions: Strep-Tactin-AF647, replicates. Here is the method:
as §1, §2

In test [11] the test system is MDA-MB-468. Described as above. Format: cell-based. As to conditions: Strep-Tactin-AF647, replicates. Here is the method: as §1, §2
Test [12] has as its system T47D. The test is described as above. Format: cell-based. Particulars: Strep-Tactin-AF647, replicates. Here is the method: as §1, §2
Test [13] deals with ZR-75-1. The test is described as above. Format: cell-based. Particulars: Strep-Tactin-AF647, replicates. Here is the method:
as §1, §2

Test [14] concerns basophils (CCR3+). Nature of the test: Siglec ligands on peripheral blood immune cells, flow cytometry. Format: cell-based, human. Also on record: key: median fluorescence intensity (MFI) of Siglec-Fc complex binding. Particulars: replicate values. Here is the method:
(§3) Siglec supernatant (50 μL) or purified Siglec was incubated with cells in a 96-well U-bottom plate for 30 min at 4 °C. Following the incubation, 200 μL of flow buffer (HBSS, 0.1% BSA, 5 mM EDTA) was added and the plate was spun down at 300 rcf for 5 min. Strep-Tactin-AF647 (0.55 μg/mL, 50 μL, 0.57 pmol), streptavidin (Biolegend), or anti-human IgG1 (Biolegend) was added to the cells and incubated for 30 min at 4 °C. After, 200 μL of flow buffer (HBSS, 0.1% BSA, 5 mM EDTA) was added and the plate was spun down at 300 rcf for 5 min. The cells were resuspended in 200 μL of flow buffer and processed through the flow cytometer.
as §1
(§4) For human splenocytes, the sample was homogenized in media through a 40 µm filter (Corning) under sterile conditions. Samples were centrifuged at 300 rcf for 5 min. The resulting pellet from the spleen sample and whole human blood were treated with RBC lysis buffer (7 min) and centrifuged at 300 rcf and the RBC lysis was repeated twice more until no RBC remained in the pellet. […]
(§5) Flow cytometry was performed on a BD LSRFortessa™ X-20 cell analyzer using BD FACSDiva Software Version 8.0.1 and data was processed using FlowJo LLC. […] The live, single cell populations were gated out with two gates to obtain the median fluorescence intensity (MFI), which indicates binding of the Siglec-Fc-secondary complex to the cell surface. Control cells that were incubated with Strep-Tactin-AF647 (0.55 μg/mL, 0.57 pmol) was used to determine the baseline fluorescence. […]

Test [15] deals with eosinophils (Siglec-8+). The description is as above. Particulars: replicate values. Format: cell-based, human. Details: key: median fluorescence intensity (MFI) of Siglec-Fc complex binding. Here is the method:
as §3, §1, §4, §5

Test [16] concerns monocytes (CD14+). The description is as above. Format: cell-based, human. Also on record: key: median fluorescence intensity (MFI) of Siglec-Fc complex binding. Particulars: replicate values. Here is the method:
as §3, §1, §4, §5

Test [17] deals with B-cells (CD19+). Described as above. Format: cell-based, human. Particulars: replicate values. Here is the method:
(§6) For human splenocytes, the sample was homogenized in media through a 40 µm filter (Corning) under sterile conditions. Samples were centrifuged at 300 rcf for 5 min. The resulting pellet from the spleen sample and whole human blood were treated with RBC lysis buffer (7 min) and centrifuged at 300 rcf and the RBC lysis was repeated twice more until no RBC remained in the pellet. Samples were treated with human Fc-receptor blocking agent (TruStain FX, Biolegend) in flow buffer (HBSS, 0.1% BSA, 5 mM EDTA). For analysis, the following cocktail was used: hSig8 (PerCP/Cy5.5, clone 7C9, Biolegend cat. no. 347108, 1:200), hCD123 (PE/Cy7, clone 6H6, Biolegend cat. no. 306010, 1:200), hCD19 (PE, clone SJ25C1, Biolegend cat. no. 363004, 1:200), hCD3 (FITC, BD Pharmingen cat. no. 555332, 1:50), hCD14 (BV605, clone M5E2, BD Horizon cat. no. 564056, 1:200), hCD15 (BUV395, clone HI98, BD Horizon cat. no. 563872, 1:200), hCD56 (BV510, clone NCAM16.2, BD Horizon cat. no. 563041, 1:200). For human peripheral blood samples, we additionally used hHLA-DR (APC-Cy7, clone L243, Biolegend cat. no. 307618, 1:200). Pre-complexed Siglec-Fc/Strep-Tactin-AF647 (described above) was added to the antibody cocktail, added to cells, and allowed to stain at 4 °C for 45 min. The cells were then centrifuged at 300 rcf for 5 min and resuspended in flow buffer containing 1 µg/mL propidium iodide prior to analysis by flow cytometry.
as §2

The subject of test [18] is NK cells (CD56+). The description is as above. Format: cell-based, human. As to conditions: replicate values. Here is the method: as §6, §2
Test [19] relates to T-cells (CD3+). The test is described as above. As to conditions: replicate values. Format: cell-based, human. Here is the method:
as §6, §2

For test [20], the system named is cDCs (CD123dim/HLA-DR+). Described as above. Format: cell-based, human. As to conditions: cDC; replicate values. Here is the method: as §6, §2
The test system of test [21] is neutrophils (CD15+). The description is as above. Format: cell-based, human. As to conditions: replicate values. Here is the method: as §6, §2
Test [22] relates to pDCs (CD123high/HLA-DR+). The test is described as above. Particulars: pDC; replicate values. Format: cell-based, human. Here is the method: as §6, §2
The subject of test [23] is neutrophils (CD15+), human splenocytes. Nature of the test: Siglec-Fc (CD22-Fc V1/V2, with or without Fc receptor block) binding to splenocytes, flow cytometry. Particulars: Suppl Fig 12; three replicate columns. Format: cell-based. Here is the method: For human splenocytes, the sample was homogenized in media through a 40 µm filter (Corning) under sterile conditions. Samples were centrifuged at 300 rcf for 5 min. The resulting pellet from the spleen sample and whole human blood were treated with RBC lysis buffer (7 min) and centrifuged at 300 rcf and the RBC lysis was repeated twice more until no RBC remained in the pellet. Samples were treated with human Fc-receptor blocking agent (TruStain FX, Biolegend) in flow buffer (HBSS, 0.1% BSA, 5 mM EDTA). […]
as §5

Test [24] relates to B-cells (CD19+), human splenocytes. Nature of the test: Siglec-Fc binding to splenocytes, flow cytometry. Format: cell-based. Particulars: Suppl Fig 12; three replicate columns. Here is the method:
as §6, §2

Test [25] has as its system NK cells (CD56+), human splenocytes. Nature of the test: Siglec-Fc binding to splenocytes, flow cytometry. Format: cell-based. As to conditions: Suppl Fig 12; three replicate columns. Here is the method:
as §6, §2

The subject of test [26] is T-cells (CD3+), human splenocytes. The test is described as follows: Siglec-Fc binding to splenocytes, flow cytometry. Format: cell-based. Particulars: Suppl Fig 12; three replicate columns. Here is the method: as §6, §2
The test system of test [27] is monocytes (CD14+), human splenocytes. Nature of the test: Siglec-Fc binding to splenocytes, flow cytometry. As to conditions: Suppl Fig 12; three replicate columns. Format: cell-based. Here is the method:
as §6, §2

In test [28] the test system is K562 cells treated with Neuraminidase A. The test is described as follows: Pre-complexed Siglec-Fc binding with or without Neu-A pretreatment. Format: cell-based. Particulars: Suppl Fig 7a. Here is the method:
as §1, §2
K562 cells were incubated with Neuraminidase A at 37 °C for 30 min with shaking every 5 min. Cells were then added to a 96-well U-bottom plate and incubated with pre-complexed Strep-Tactin-AF647/Siglec, as described above.

The subject of test [29] is CMAS−/− HEK293 cells. The test is described as follows: Pre-complexed Siglec-Fc binding to sialic acid-deficient cells. Format: cell-based. Particulars: Suppl Fig 7b; HEK CMASKO. Here is the method:
Custom crRNA (IDT) was designed to target human CMAS ([…]) and ST6Gal1 ([…]). Cells were seeded at 500,000 cells per well 1 day prior to transfection in a 6-well tissue culture plate. For one well of a 6-well plate, 20 pmol of Cas9 nuclease (IDT), 20 pmol of ATTO-550 labeled crRNA:tracrRNA (IDT) duplex, 8 μL Cas9 Plus reagent (IDT), and 16 μL CRISPRMAX reagent (Thermo Fisher) in 600 μL Opti-MEM medium (Gibco). One day after transfection, cells were removed from the plate by trypsin digestion, washed, resuspended in 300 μl of cell sorting medium (HBSS, 10% FBS, 1 mM EDTA), and stored on ice until sorting. Cells were sorted within the University of Alberta Flow Cytometry Core. The top 5% bright dyes stained with ATTO-550 were sorted into three 96-well plates containing regular culture medium at one cell per well. […]
as §5

Test [30] concerns the target Strep-tag II. Particulars: cited from earlier work.

Values joined by “and” are separate entries in the source; they are usually repeats but may differ in a detail not shown here. Equal entries are not always repeated.

In the case of Sig-1-Fc R116A, the Binding in test [1] (Amount of Siglec 3.75 ug/mL) was 54.5 and 53.7 and 57.1; in test [1] (Amount of Siglec 7.5 ug/mL) it was 57.9 and 62.1 and 64.6; in [1] (Amount of Siglec 15 ug/mL) it was 67.9 and 72.2 and 70.4; in [1] (Amount of Siglec 30 ug/mL), 133 and 128 and 148; in [1] (Amount of Siglec 60 ug/mL) it was 157 and 165 and 148.
Turning to “Sig-8 R128A: Siglec-8-Fc essential arginine mutant”, the “binding of pre-complexed Siglec-Fc (MFI)” value in test [1] (U937, Strep-Tactin-AF647, replicates, Fig. 2) was 94.6 and 90.4 and 92.5; in test [2], 123 and 130 and 127; in test [3] (HEK, Strep-Tactin-AF647, replicates) it was 70.7 and 73.5 (2×); in [4], 92.2 and 88.8 and 95.7; in [5], 80.5 and 89.6 and 88.9; in test [6], 133 and 120 and 116. Moreover, the “binding of pre-complexed Siglec-Fc (MFI)” value in [7] is 101 and 105 (2×); in test [8], 127 and 117 and 114; in test [9] it was 129 (2×) and 126; in test [10], 154 (2×) and 157; in [11], 125 and 126 and 131; in test [12], 86.1 and 97.6 and 94.1. Besides, the “binding of pre-complexed Siglec-Fc (MFI)” value in test [13] was 269 and 266 and 255. In addition, the “Siglec-Fc binding (Figure 3d)” value in [14] was 38.5 and 41.6 and 74.4; in test [15], 25.7 and 26.1 and 45; in test [16] it was 97.7 and 42.1 and 63.5; in test [17], 41.1 and 12.5 and 42.1; in [18] it was 32.1 and 46.5 and 41.2; in test [19] it was 20.5 and 10.3 and 64.2. The “Siglec-Fc binding (Figure 3d)” value in test [20] is 60.4 and -24.4 and 18; in [21] it was 38.5 and 12.4 and 5.83; in test [22], 74.5 and 11.6 and 48.8. Also, the “Binding, Neutrophils” value in test [23] was -13.8 and -28.2 and -29.9. Further, the “Binding, B-cells” value in test [24] was 3.45 and -1.72 and -2.87. In test [25], the “Binding, NK” value was 4.43 and 1.18 and 2.36. For the same substance, in [26], the “Binding, T-cells” value was 6.21 and 2.36 and 4.73. In test [27], the “Binding, Monocytes” value was 15.5 and 9.76 and 8.04.
As for Siglec-2, the Binding in test [3] (Suppl Fig 7b, HEK WT) was 631 and 654 and 721; in [28] (+Neuraminidase), 88.8 and 91.5 and 90.6; in [28] (-Neuraminidase), 2128 and 1497 and 1576; in test [29], 86 and 84.2.
In the case of “Streptavidin: protein binding Strep-tag II with intermediate affinity [reference compound]”, in test [1] (Suppl Fig 4a, Streptavidin alone), the “Siglec-1-Fc Binding” value is 150 and 128 and 134. The Kd in [30] was 72 µM.
